Reference: US6703373B1, “Indolopyrrolocarbazole derivatives and antitumor agents” (Banyu Pharmaceutical Co., Ltd., priority 2002, dated 2004)

How the values were obtained:
[1] = tested on: human lung cancer cells (PC-13); test: Growth inhibition activity on human lung cancer cells (PC-13); format: cell-based; details: PC-13 cells, 72 h with compound, Sulforhodamine B, absorbance 560 nm; read-out: 50% inhibition concentration (IC50, nM) PC-13
Description: (§1) Growth Inhibition Activity on Human Gastric Cancer Cells, Human Colon Cancer Cells and Human Lung Cancer Cells
(§2) 100 μl of a medium containing a test compound was added, and culture was continued at 37° C. for further 72 hours under 5% CO2. After completion of the culture, 50 μl of 50% trichloroacetic acid was added to the cultured medium, and the mixtures were held at 4° C. for 60 minutes to fix the cells. The cultured medium containing trichloroacetic acid was removed, and the wells were washed with tap water and dried. 50 μl of 0.4% Sulforhodamine B solution was added, and the mixtures were held at room temperature for 30 minutes to dye the cells. The dyeing solutions were removed, and the remaining dyeing solutions were washed away with 1% acetic acid. After complete removal of the acetic acid solution and drying, 200 μl of […] Tris solution was added and the mixtures were mixed well at room temperature for 1 hour or more to extract the dye. Absorbance of each well at 560 nm was measured, and the inhibition proportion in comparison with the group of no addition of any drug was calculated.

[2] = tested on: human colon cancer cells (DLD-1); test: Growth inhibition activity on human colon cancer cells (DLD-1); format: cell-based; details: DLD-1 cells, 72 h with compound, Sulforhodamine B, absorbance 560 nm; read-out: 50% inhibition concentration (IC50, nM) DLD-1
Description: as §1, §2

[3] = tested on: mouse leukemia cells (P388); test: Growth inhibition activity on mouse leukemia cells (P388); format: cell-based; details: 24 h with compound, Thiazoyl Blue, absorbance 550 nm, read-out: 50% inhibition concentration (IC50, nM) P-388
Description: Growth Inhibition Activity on Mouse Leukemia Cells
10 μl of a medium containing a test compound was added, and culture was continued at 37° C. for further 24 hours under 5% CO2. 10 μl of 0.5% Thiazoyl Blue was added to the cultured medium, and incubation was made at 37° C. for 2 hours under 5% CO2 to carry out enzymatic reaction. 20% sodium dodecyl sulfate (SDS) was added to discontinue the reaction, and incubation was carried out at 37° C. for further 4 hours to dissolve the resulting dye, and absorbance at 550 nm was measured and compared with the control group.

[4] = tested on: human gastric cancer cells (MKN-45); test: Growth inhibition activity on human gastric cancer cells (MKN-45); format: cell-based; details: MKN-45 cells, 72 h with compound, Sulforhodamine B, absorbance 560 nm; read-out: 50% inhibition concentration (IC50, nM) MKN-45
Description: as §1, §2

Human breast cancer MX-1 = test: Antitumor effect on human breast cancer (MX-1) solid tumor implanted in mice; format: in vivo, mouse; details: total dose to inhibit tumor growth by 75%; s.c. implanted tumor in mice, tail vein injection, 5/w×2 or 2/w×2, measured 28 after start
Description: (§3) Antitumor Effect on Human Gastric Cancer (MKN-45), Human Breast Cancer (MX-1) and Human Colon Cancer (LS180)
(§4) A MKN-45, MX-1 or LS180 solid tumor previously subcutaneously implanted in a nude mouse and grown was thinly cut, and its cubes with each side 3 mm were subcutaneously implanted in test mice. After the implantation, starting from the time when the tumor grew into 0.3 cm^3 or more, various dosages of a test compound were injected once a day for 5 consecutive days into the tail veins of the mice. The same injections were then made for further 5 days after 2 days of interval (treatment schedule: 5/w×2) or once every 3-4 days, four times in total (treatment schedule: 2/w×2). 28 after the start of the treatment, the length (L) and the breadth (W) of each of the tumors were measured, and its volume (V) was calculated (V=½×L×W^2).

[5] = tested on: Human gastric cancer MKN-45; test: Antitumor effect on human gastric cancer (MKN-45) solid tumor implanted in mice; format: in vivo, mouse; details: total dose to inhibit tumor growth by 75%; s.c. implanted tumor in mice, tail vein injection, 5/w×2 or 2/w×2, measured 28 after start
Description: as §3, §4

Human colon cancer LS180 = test: Antitumor effect on human colon cancer (LS180) solid tumor implanted in mice; format: in vivo, mouse; details: total dose to inhibit tumor growth by 75%; s.c. implanted tumor in mice, tail vein injection, 5/w×2 or 2/w×2, measured 28 after start
Description: as §3, §4

SMILES | IC50 [1] | IC50 [2] | IC50 [3] | IC50 [4] | GID75 (mg/m^2 total) Human breast cancer MX-1 (Human breast cancer MX-1) | GID75 (mg/m^2 total) Human gastric cancer MKN-45 [5] | GID75 (mg/m^2 total) Human colic cancer LS180 (Human colon cancer LS180)
O=C1c2c(c3c4cccc(O)c4n(C4OC(CO)C(O)C(O)C4O)c3c3[nH]c4c(O)cccc4c23)C(=O)N1NCc1cccc(O)c1 (stereo not drawn) [Control compound 2, reference compound] | 48 nM | 76 nM | 6.5 nM | 12 nM |  |  | 
O=C1c2c(c3c4ccc(O)cc4n(C4OC(CO)C(O)C(O)C4O)c3c3[nH]c4cc(O)ccc4c23)C(=O)N1NCc1cccc(O)c1 (stereo not drawn) [Control compound, reference compound] |  |  |  |  | 97 mg/m^2 | 370 mg/m^2 | 1900 mg/m^2
O=C1c2c(c3c4ccc(O)cc4n([C@@H]4O[C@H](CO)[C@@H](O)[C@H](O)[C@H]4O)c3c3[nH]c4cc(O)ccc4c23)C(=O)N1NCc1ccncc1CO [Example 3] | 0.22 nM | 0.91 nM | 0.28 nM | 0.35 nM | <12 mg/m^2 | <30 mg/m^2 | 48 mg/m^2
O=C1c2c(c3c4ccc(O)cc4n([C@@H]4O[C@H](CO)[C@@H](O)[C@H](O)[C@H]4O)c3c3[nH]c4cc(O)ccc4c23)C(=O)N1NCc1cccc(CO)n1 [Example 15] | 0.62 nM | 4.3 nM | 0.5 nM | 2.1 nM | <6 mg/m^2 | <90 mg/m^2 | 400 mg/m^2
O=C1c2c(c3c4ccc(O)cc4n([C@@H]4O[C@H](CO)[C@@H](O)[C@H](O)[C@H]4O)c3c3[nH]c4cc(O)ccc4c23)C(=O)N1NCc1sc(CO)cc1CO [Example 16] | 0.56 nM | 4 nM | 0.4 nM | 1.3 nM | <36 mg/m^2 |  | 
O=C1c2c(c3c4ccc(O)cc4n([C@@H]4O[C@H](CO)[C@@H](O)[C@H](O)[C@H]4O)c3c3[nH]c4cc(O)ccc4c23)C(=O)N1NCc1ccsc1CO [Example 18] | 0.3 nM | 4.6 nM | 0.43 nM | 0.66 nM | 16 mg/m^2 |  | 
O=C1c2c(c3c4ccc(O)cc4n([C@@H]4O[C@H](CO)[C@@H](O)[C@H](O)[C@H]4O)c3c3[nH]c4cc(O)ccc4c23)C(=O)N1NCc1sccc1CO [Example 19] | 0.5 nM | 1.3 nM | 0.19 nM | 0.92 nM | <30 mg/m^2 |  | 
O=C1c2c(c3c4ccc(O)cc4n([C@@H]4O[C@H](CO)[C@@H](O)[C@H](O)[C@H]4O)c3c3[nH]c4cc(O)ccc4c23)C(=O)N1NCc1cscc1CO [Example 20] | 0.67 nM | 1 nM | 0.87 nM | 0.92 nM | <30 mg/m^2 |  | 
O=C1c2c(c3c4ccc(O)cc4n([C@@H]4O[C@H](CO)[C@@H](O)[C@H](O)[C@H]4O)c3c3[nH]c4cc(O)ccc4c23)C(=O)N1NCc1ccc(CO)o1 [Example 22] | 0.58 nM | 1 nM | 0.63 nM | 1.8 nM |  |  | 
O=C1c2c(c3c4ccc(O)cc4n([C@@H]4O[C@H](CO)[C@@H](O)[C@H](O)[C@H]4O)c3c3[nH]c4cc(O)ccc4c23)C(=O)N1NCc1csc(CO)c1 [Example 23] | 2.3 nM | 8.9 nM | 0.48 nM | 1.5 nM | 19 mg/m^2 |  | 
O=C1c2c(c3c4ccc(O)cc4n([C@@H]4O[C@H](CO)[C@@H](O)[C@H](O)[C@H]4O)c3c3[nH]c4cc(O)ccc4c23)C(=O)N1NCc1ccncc1 [Example 24] | 0.27 nM | 3.3 nM | 0.48 nM | 0.71 nM | 27 mg/m^2 | 12 mg/m^2 | 114 mg/m^2
